Laboratory results published in patent US20210070748A1, “INHIBITORS OF BRUTONS TYROSINE KINASE” (Pharmacyclics LLC, priority 2015, published 2021).

Experiments:
[1] = molecular target: EGFR (Homo sapiens, UniProt P00533); assay: Inhibition of a panel of kinases, in vitro HotSpot kinase assay: EGFR; assay type: biochemical; conditions: D-compounds panel data; 1 μM ATP
Experimental: The degree of inhibition of a panel of kinases is determined using the in vitro HotSpot kinase assay (purified enzymes, ^33P-ATP, an appropriate substrate and 1 μM ATP).

[2] = molecular target: T1, JAK3 (Homo sapiens, UniProt P52333); assay: Inhibition of a panel of kinases, in vitro HotSpot kinase assay: JAK3; assay type: biochemical; conditions: D-compounds panel data; 1 μM ATP; read-out: IC50 JAK3
T1 sequence (P52333 1-1124): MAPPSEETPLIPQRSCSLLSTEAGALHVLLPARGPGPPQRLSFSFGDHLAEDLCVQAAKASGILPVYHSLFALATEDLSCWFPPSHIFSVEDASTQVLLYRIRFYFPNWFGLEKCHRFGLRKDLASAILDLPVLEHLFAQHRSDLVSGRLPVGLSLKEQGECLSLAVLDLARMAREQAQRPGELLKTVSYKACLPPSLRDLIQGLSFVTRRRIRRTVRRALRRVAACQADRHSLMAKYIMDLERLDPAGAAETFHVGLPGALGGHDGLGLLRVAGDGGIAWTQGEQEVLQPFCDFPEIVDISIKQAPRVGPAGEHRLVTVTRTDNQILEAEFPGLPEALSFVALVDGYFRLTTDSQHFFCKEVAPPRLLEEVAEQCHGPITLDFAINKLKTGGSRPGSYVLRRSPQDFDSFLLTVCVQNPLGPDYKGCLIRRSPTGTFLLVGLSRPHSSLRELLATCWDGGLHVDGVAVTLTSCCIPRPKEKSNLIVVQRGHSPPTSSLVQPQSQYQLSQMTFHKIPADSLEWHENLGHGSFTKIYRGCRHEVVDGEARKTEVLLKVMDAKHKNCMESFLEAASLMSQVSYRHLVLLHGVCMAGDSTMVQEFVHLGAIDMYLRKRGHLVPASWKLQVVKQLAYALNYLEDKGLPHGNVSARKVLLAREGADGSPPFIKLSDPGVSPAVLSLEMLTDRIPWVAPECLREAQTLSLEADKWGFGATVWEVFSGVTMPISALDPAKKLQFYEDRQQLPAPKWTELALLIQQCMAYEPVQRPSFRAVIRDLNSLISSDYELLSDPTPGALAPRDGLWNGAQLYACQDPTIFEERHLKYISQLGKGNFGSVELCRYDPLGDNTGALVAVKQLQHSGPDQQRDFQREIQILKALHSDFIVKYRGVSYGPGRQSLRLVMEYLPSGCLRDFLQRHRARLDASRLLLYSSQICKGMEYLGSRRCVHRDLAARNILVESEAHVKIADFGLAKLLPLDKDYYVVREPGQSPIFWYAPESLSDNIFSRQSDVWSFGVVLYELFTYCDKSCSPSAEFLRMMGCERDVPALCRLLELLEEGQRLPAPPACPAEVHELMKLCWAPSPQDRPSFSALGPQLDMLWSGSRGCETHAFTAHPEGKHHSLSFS

Chain of EGFR (P00533 25-1210): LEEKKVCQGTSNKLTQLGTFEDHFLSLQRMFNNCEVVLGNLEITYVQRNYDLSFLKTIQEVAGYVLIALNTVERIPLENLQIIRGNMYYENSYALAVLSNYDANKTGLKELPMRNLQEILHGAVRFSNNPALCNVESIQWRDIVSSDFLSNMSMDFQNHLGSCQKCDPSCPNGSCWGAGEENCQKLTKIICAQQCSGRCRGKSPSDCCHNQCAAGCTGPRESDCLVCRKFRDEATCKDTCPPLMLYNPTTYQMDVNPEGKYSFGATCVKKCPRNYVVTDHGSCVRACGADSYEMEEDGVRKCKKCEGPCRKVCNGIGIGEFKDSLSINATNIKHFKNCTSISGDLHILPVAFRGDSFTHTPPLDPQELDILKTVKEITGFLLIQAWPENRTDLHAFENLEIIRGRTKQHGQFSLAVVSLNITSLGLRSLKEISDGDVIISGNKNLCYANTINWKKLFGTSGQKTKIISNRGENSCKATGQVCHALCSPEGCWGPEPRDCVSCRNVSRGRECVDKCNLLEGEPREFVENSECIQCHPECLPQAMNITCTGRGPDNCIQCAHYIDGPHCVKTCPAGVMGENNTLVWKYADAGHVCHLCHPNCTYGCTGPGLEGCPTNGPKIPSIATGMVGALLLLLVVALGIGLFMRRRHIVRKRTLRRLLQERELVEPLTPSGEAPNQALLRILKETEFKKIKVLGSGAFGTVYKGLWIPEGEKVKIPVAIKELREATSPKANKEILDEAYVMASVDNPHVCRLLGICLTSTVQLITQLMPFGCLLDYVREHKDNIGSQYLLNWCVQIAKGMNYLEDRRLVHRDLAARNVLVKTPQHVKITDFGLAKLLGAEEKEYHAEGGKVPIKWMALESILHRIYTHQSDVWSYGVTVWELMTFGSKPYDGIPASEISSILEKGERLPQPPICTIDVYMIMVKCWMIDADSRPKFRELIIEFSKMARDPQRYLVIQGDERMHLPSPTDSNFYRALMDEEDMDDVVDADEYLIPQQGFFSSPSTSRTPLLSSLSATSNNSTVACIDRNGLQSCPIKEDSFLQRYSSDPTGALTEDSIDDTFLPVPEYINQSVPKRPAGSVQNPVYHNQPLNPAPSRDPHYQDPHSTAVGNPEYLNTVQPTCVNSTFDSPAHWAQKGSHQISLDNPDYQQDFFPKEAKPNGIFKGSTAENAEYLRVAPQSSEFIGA

SMILES | IC50 [1] [µM] | IC50 [2] [µM]
C[C@@H]1[C@H](NC(=O)c2ccc3nn(C)cc3c2)CCCN1c1cnc(C(N)=O)c(Nc2cnn(C)c2)n1 [Example D-267, N-[(2R,3R)-1-{5-carbamoyl-6-[(1-methyl-1H-pyrazol-4-yl)amino]pyrazin-2-yl}-2-methylpiperidin-3-yl]-2-methyl-2H-indazole-5-carboxamide] | 0.1 to 1 | 1 to 10
C[C@@H]1[C@H](NC(=O)c2ccc(C(N)=O)cc2)CCCN1c1cnc(C(N)=O)c(Nc2cnn(C)c2)n1 [Example D-268, 1-N-[(2R,3R)-1-{5-carbamoyl-6-[(1-methyl-1H-pyrazol-4-yl)amino]pyrazin-2-yl}-2-methylpiperidin-3-yl]benzene-1,4-dicarboxamide] | 0.1 to 1 | 1 to 10
COCCN(C)Cc1cc(Nc2nc(N3CCC[C@@H](NC(=O)c4ccc(C5CC5)cc4)[C@H]3C)cnc2C(N)=O)sn1 [Example D-269, 5-[(2R,3R)-3-(4-cyclopropylbenzamido)-2-methylpiperidin-1-yl]-3-[(3-{[(2-methoxyethyl)(methyl)amino]methyl}-1,2-thiazol-5-yl)amino]pyrazine-2-carboxamide] | > 10 | 1 to 10
COCCn1cc(Nc2nc(N3CCC[C@@H](NC(=O)c4ccc(C5CC5)cc4)[C@H]3C)cnc2C(N)=O)cn1 [Example D-270, 5-[(2R,3R)-3-(4-cyclopropylbenzamido)-2-methylpiperidin-1-yl]-3-{[1-(2-methoxyethyl)-1H-pyrazol-4-yl]amino}pyrazine-2-carboxamide] | 1 to 10 | 1 to 10
Cc1c(Nc2nc(N3CCC[C@@H](NC(=O)c4ccc(C5CC5)cc4)[C@H]3C)cnc2C(N)=O)cnn1C [Example D-271, 5-[(2R,3R)-3-(4-cyclopropylbenzamido)-2-methylpiperidin-1-yl]-3-[(1,5-dimethyl-1H-pyrazol-4-yl)amino]pyrazine-2-carboxamide] | 1 to 10 | > 10
Cc1nn(C)cc1Nc1nc(N2CCC[C@@H](NC(=O)c3ccc(C4CC4)cc3)[C@H]2C)cnc1C(N)=O [Example D-272, 5-[(2R,3R)-3-(4-cyclopropylbenzamido)-2-methylpiperidin-1-yl]-3-[(1,3-dimethyl-1H-pyrazol-4-yl)amino]pyrazine-2-carboxamide] | 1 to 10 | > 10
CCn1cc(Nc2nc(N3CCC[C@@H](NC(=O)c4ccc(C5CC5)cc4)[C@H]3C)cnc2C(N)=O)cn1 [Example D-273, 5-[(2R,3R)-3-(4-cyclopropylbenzamido)-2-methylpiperidin-1-yl]-3-[(1-ethyl-1H-pyrazol-4-yl)amino]pyrazine-2-carboxamide] | 0.1 to 1 | 1 to 10
C[C@@H]1[C@H](NC(=O)c2ccc(C3CC3)cc2)CCCN1c1cnc(C(N)=O)c(Nc2cnn(C3CCOCC3)c2)n1 [Example D-274, 5-[(2R,3R)-3-(4-cyclopropylbenzamido)-2-methylpiperidin-1-yl]-3-{[1-(oxan-4-yl)-1H-pyrazol-4-yl]amino}pyrazine-2-carboxamide] | 1 to 10 | 1 to 10
C[C@@H]1[C@H](NC(=O)c2ccc(C3CC3)cc2)CCCN1c1cnc(C(N)=O)c(Nc2cnn(C(F)F)c2)n1 [Example D-275, 5-[(2R,3R)-3-(4-cyclopropylbenzamido)-2-methylpiperidin-1-yl]-3-{[1-(difluoromethyl)-1H-pyrazol-4-yl]amino}pyrazine-2-carboxamide] | > 10 | > 10
C[C@@H]1[C@H](NC(=O)c2ccc(C3CC3)cc2)CCCN1c1cnc(C(N)=O)c(Nc2cnn(C)c2C(F)(F)F)n1 [Example D-276, 5-[(2R,3R)-3-(4-cyclopropylbenzamido)-2-methylpiperidin-1-yl]-3-{[1-methyl-5-(trifluoromethyl)-1H-pyrazol-4-yl]amino}pyrazine-2-carboxamide] | > 10 | > 10
C[C@@H]1[C@H](NC(=O)c2ccc(C3CC3)cc2)CCCN1c1nnc(C(N)=O)c(Nc2cnn(C)c2)n1 [Example D-277, 3-[(2R,3R)-3-(4-cyclopropylbenzamido)-2-methylpiperidin-1-yl]-5-[(1-methyl-1H-pyrazol-4-yl)amino]-1,2,4-triazine-6-carboxamide] | 1 to 10 | 0.1 to 1
C[C@@H]1[C@H](NC(=O)c2ccc(C3CC3)cc2)CCCN1c1cnc(C(N)=O)c(Nc2cn(C)nc2C(F)(F)F)n1 [Example D-278, 5-[(2R,3R)-3-(4-cyclopropylbenzamido)-2-methylpiperidin-1-yl]-3-{[1-methyl-3-(trifluoromethyl)-1H-pyrazol-4-yl]amino}pyrazine-2-carboxamide] | > 10 | > 10
C[C@@H]1[C@H](NC(=O)c2ccc(C3CC3)cc2)CCCN1c1cnc(C(N)=O)c(Nc2cnn(C3CC3)c2)n1 [Example D-279, 3-[(1-cyclopropyl-1H-pyrazol-4-yl)amino]-5-[(2R,3R)-3-(4-cyclopropylbenzamido)-2-methylpiperidin-1-yl]pyrazine-2-carboxamide] | 1 to 10 | > 10
C[C@@H]1[C@H](NC(=O)c2ccc(C3CC3)cc2)CCCN1c1cnc(C(N)=O)c(Nc2cnn(C3CCNCC3)c2)n1 [Example D-280, 5-[(2R,3R)-3-(4-cyclopropylbenzamido)-2-methylpiperidin-1-yl]-3-{[1-(piperidin-4-yl)-1H-pyrazol-4-yl]amino}pyrazine-2-carboxamide] | 1 to 10 | 1 to 10
C[C@@H]1[C@H](NC(=O)c2ccc(C3CC3)cc2)CCCN1c1cnc(C(N)=O)c(Nc2cnn(CCO)c2)n1 [Example D-281, 5-[(2R,3R)-3-(4-cyclopropylbenzamido)-2-methylpiperidin-1-yl]-3-{[I-(2-hydroxyethyl)-1H-pyrazol-4-yl]amino}pyrazine-2-carboxamide] | 1 to 10 | 1 to 10
C[C@@H]1[C@H](NC(=O)c2ccc(C3CC3)cc2)CCCN1c1cnc(C(N)=O)c(Nc2cn[nH]c2)n1 [Example D-282, 5-[(2R,3R)-3-(4-cyclopropylbenzamido)-2-methylpiperidin-1-yl]-3-[(1H-pyrazol-4-yl)amino]pyrazine-2-carboxamide] | 1 to 10 | > 10
CC(=O)N1CCC(n2cc(Nc3nc(N4CCC[C@@H](NC(=O)c5ccc(C6CC6)cc5)[C@H]4C)cnc3C(N)=O)cn2)CC1 [Example D-283, 3-{[1-(1-acetylpiperidin-4-yl)-1H-pyrazol-4-yl]amino}-5-[(2R,3R)-3-(4-cyclopropylbenzamido)-2-methylpiperidin-1-yl]pyrazine-2-carboxamide] | 1 to 10 | 1 to 10
C[C@@H]1[C@H](NC(=O)c2ccc(C3CC3)cc2)CCCN1c1cnc(C(N)=O)c(Nc2cnn(-c3ccncc3)c2)n1 [Example D-284, 5-[(2R,3R)-3-(4-cyclopropylbenzamido)-2-methylpiperidin-1-yl]-3-{[1-(pyridin-4-yl)-1H-pyrazol-4-yl]amino}pyrazine-2-carboxamide] | > 10 | > 10
C[C@@H]1[C@H](NC(=O)c2ccc(C(C)(C)C)cc2)CCCN1c1nnc(C(N)=O)c(Nc2cnn(C)c2)n1 [Example D-285, 3-[(2R,3R)-3-(4-tert-butylbenzamido)-2-methylpiperidin-1-yl]-5-[(1-methyl-1H-pyrazol-4-yl)amino]-1,2,4-triazine-6-carboxamide] | 1 to 10 | 0.1 to 1
C[C@@H]1[C@H](NC(=O)N(C)C)CCCN1c1nnc(C(N)=O)c(Nc2cnn(C)c2)n1 [Example D-286, 3-[(2R,3R)-3-[(dimethylcarbamoyl)amino]-2-methylpiperidin-1-yl]-5-[(1-methyl-1H-pyrazol-4-yl)amino]-1,2,4-triazine-6-carboxamide] | 1 to 10 | 1 to 10
C[C@@H]1[C@H](NC(=O)c2ccc(C3CC3)cc2)CCCN1c1cnc(C(N)=O)c(Nc2cnn(CC#N)c2)n1 [Example D-287, 3-{[1-(cyanomethyl)-1H-pyrazol-4-yl]amino}-5-[(2R,3R)-3-(4-cyclopropylbenzamido)-2-methylpiperidin-1-yl]pyrazine-2-carboxamide] | > 10 | 1 to 10
